Assay results from publication PMC10322718, “Expanding the substrate scope of pyrrolysyl-transfer RNA synthetase enzymes to include non-α-amino acids in vitro and in vivo” (Nature Chemistry, 2023).

Assays:
MaPylRS = target: T1, MaPylRS (Methanomethylophilus alvi, UniProt M9SC49, N166A/V168A); assay: X-ray crystal structure, […] Å; format: binding; details: ternary complex with AMP-PNP; active site, two orientations (chains A and B)
T1 construct: gene MMALV_11280; pET32a, E. coli BL21-Gold(DE3)pLysS, Ni-NTA; for crystals 6xHis-thrombin site N-terminal, tag cut; dimer in crystal

[1] = target: the molecule itself; assay: crystal structure; MaFRSA with 100 mM m-CF3-2-BMA and 10 mM AMP-PNP, hanging-drop vapour diffusion at 18 °C, 10 mM Tris-HCl pH 7.4, 26% PEG 3,350; space group I4, two copies in the asymmetric unit, 1.8 Å

O=C(O)C(Cc1cccc(C(F)(F)F)c1)C(=O)O [compound 18, m-CF3-2-BMA]
X-ray crystal structure, 1.8 Å (MaPylRS): we solved the crystal structure of MaFRSA bound to both m-CF3-2-BMA and the non-hydrolysable ATP analogue

B1: MaFRSA (Methanomethylophilus alvus pyrrolysyl-tRNA synthetase, MaPylRS, N166A V168A) (enzyme)
chain: MTVKYTDAQIQRLREYGNGTYEQKVFEDLASRDAAFSKEMSVASTDNEKKIKGMIANPSRHGLTQLMNDIADALVAEGFIEVRTPIFISKDALARMTITEDKPLFKQVFWIDEKRALRPMLAPNLYSVMRDLRDHTDGPVKIFEMGSCFRKESHSGMHLEEFTMLALADMGPRGDATEVLKNYISVVMKAAGLPDYDLVQEESDVYKETIDVEINGQEVCSAAVGPHYLDAAHDVHEPWSGAGFGLERLLTIREKYSTVKKGGASISYLNGAKIN
notes: Pyrrolysyl-tRNA synthetase (PylRS) of Methanomethylophilus alvus with N166A and V168A; construct GSS linker-6xHis-SSG linker-thrombin site-MaFRSA from pET32a-6xHis-thrombin-MaFRSA, tag removed with thrombin; Crystallised with m-CF3-2-benzylmalonate and AMP-PNP; source: E. coli BL21-Gold (DE3)pLysS, purified (TALON, thrombin cleavage, Superdex 200); not shown: 6xHis, N-terminal, cleaved
binding result [1]: binds
